Assay results taken from ChEMBL document CHEMBL1201862, “PubChem BioAssay data set” (2004).
Activity calls are given as the source filed them.

Key:
Cytochrome P450 2C19 = Cytochrome P450 2C19 (Homo sapiens, UniProt P33261); assay: Cytochrome panel assay with activity outcomes. Panel member name: p450-cyp2c19 Compounds with AC50 equal or less than 10 uM are considered active; type: functional
Cytochrome P450 2D6 = Cytochrome P450 2D6 (Homo sapiens, UniProt P10635);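 note: CYP2D6 member of a cytochrome P450 panel assay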
Cytochrome P450 2D6, sequence (P10635 whole entry): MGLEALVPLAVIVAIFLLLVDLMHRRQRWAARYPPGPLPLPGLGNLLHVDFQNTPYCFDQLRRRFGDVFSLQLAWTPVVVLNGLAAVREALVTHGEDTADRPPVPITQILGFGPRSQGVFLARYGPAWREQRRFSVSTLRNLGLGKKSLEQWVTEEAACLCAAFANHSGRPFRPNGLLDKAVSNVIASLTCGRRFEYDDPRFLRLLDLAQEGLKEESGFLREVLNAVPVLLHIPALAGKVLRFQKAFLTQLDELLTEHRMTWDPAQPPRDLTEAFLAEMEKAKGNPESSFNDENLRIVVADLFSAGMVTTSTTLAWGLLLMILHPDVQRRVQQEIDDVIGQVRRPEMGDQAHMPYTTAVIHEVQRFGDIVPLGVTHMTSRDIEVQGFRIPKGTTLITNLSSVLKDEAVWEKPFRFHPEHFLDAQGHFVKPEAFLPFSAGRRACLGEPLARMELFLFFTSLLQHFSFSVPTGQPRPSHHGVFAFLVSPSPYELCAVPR

[1] = NIH-3T3 fibroblast cytotoxicity, dose response, cytotoxicity control, cell-based, fluorescence, Alamar Blue, secondary assay (AID 2327); type: functional;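 note: NIH-3T3 mouse fibroblasts cultured with fluconazole at 8 µg/mL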
[2] = C. albicans growth with fluconazole, confirmation, fluorescence, retest (AID 2467); type: functional, cell-based
INS1 = assay: beta cell apoptosis inhibitors, cytokine rescue, dose response, luminescence, retest (AID 449756); type: functional, cell-based; conditions: Rattus norvegicus;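 note: cell death triggered by IL-1 beta plus TNF-alpha plus IFN-gamma mixture; protective hits raise ATP signal compared with cytokine alone wells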
Cytochrome P450 2C9 = Cytochrome P450 2C9 (Homo sapiens, UniProt P11712)
Cytochrome P450 2C9, sequence (P11712 whole entry): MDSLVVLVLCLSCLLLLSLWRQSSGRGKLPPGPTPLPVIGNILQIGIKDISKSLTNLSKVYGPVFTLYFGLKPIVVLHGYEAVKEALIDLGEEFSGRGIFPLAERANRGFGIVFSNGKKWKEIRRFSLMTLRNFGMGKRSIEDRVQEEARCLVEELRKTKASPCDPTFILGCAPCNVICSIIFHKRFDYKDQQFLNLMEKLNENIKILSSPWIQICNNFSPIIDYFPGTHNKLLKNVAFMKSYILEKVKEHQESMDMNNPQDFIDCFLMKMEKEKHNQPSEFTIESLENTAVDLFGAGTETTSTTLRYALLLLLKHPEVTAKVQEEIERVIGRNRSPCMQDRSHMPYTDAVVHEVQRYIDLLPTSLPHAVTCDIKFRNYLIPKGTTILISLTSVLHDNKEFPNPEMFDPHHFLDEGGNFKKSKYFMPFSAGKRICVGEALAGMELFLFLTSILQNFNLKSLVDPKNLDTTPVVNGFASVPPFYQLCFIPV

Cytochrome P450 3A4 = Cytochrome P450 3A4 (Homo sapiens, UniProt P08684);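 note: CYP3A4 tested as one member of a cytochrome P450 panel screen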
Cytochrome P450 3A4, sequence (P08684 whole entry): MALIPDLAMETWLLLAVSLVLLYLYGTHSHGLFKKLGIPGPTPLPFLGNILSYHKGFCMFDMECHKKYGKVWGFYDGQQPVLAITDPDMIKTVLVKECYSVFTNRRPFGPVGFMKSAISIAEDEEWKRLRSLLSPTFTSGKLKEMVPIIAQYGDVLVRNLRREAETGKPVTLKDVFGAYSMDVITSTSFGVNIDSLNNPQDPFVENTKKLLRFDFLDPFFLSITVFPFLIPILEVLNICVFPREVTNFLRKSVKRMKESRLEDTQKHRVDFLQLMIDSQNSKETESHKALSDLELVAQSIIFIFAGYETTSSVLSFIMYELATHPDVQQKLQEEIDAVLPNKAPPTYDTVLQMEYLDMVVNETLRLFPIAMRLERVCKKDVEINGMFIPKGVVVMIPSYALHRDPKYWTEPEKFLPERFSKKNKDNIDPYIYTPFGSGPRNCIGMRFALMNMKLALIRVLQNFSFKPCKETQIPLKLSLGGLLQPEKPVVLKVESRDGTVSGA

[3] = test system: Streptococcus sp. 'group A'; assay: growth inhibition of control SK(-) GAS strain, dose response, counter-screen for streptokinase expression inhibitor project, luminescence, kanamycin, BacTiterGlo, confirmation (AID 1900); type: functional, organism-based
Streptokinase A = target: T1, Streptokinase A (Streptococcus pyogenes serotype M1, UniProt P10520); assay: S. pyogenes streptokinase expression inhibitors, potency, dose response, plasminogen activation absorbance, OD405 (AID 1914); type: functional, Streptococcus pyogenes M1 GAS;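 note: secreted streptokinase activity via plasminogen activation per viability signal from cell pellet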
T1 sequence (P10520 whole entry): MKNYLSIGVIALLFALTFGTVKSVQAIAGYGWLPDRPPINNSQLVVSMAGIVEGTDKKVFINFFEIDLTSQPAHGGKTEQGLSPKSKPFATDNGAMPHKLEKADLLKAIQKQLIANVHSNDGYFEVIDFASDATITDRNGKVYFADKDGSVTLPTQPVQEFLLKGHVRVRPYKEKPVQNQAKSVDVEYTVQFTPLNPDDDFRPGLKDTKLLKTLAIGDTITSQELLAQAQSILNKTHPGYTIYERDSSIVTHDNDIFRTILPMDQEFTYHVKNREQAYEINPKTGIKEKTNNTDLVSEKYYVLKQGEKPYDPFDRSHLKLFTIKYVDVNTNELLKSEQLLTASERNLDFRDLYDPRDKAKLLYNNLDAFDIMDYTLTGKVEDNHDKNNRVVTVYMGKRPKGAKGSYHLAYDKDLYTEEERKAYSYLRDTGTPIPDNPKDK

[4] = inhibitors of intracellular T. cruzi replication, confirmation, NIH3T3 host cells, beta-gal luminescence (AID 2044); type: functional, cell-based;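 note: intracellular parasites grown in NIH/3T3 mouse fibroblasts as host cells; luminescent beta-galactosidase reporter signal from transgenic T. cruzi replicating inside host cells; inhibitors lower the luminescence signal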
[5] = cytotoxicity toward NIH3T3 fibroblasts, dose response, counter-screen, cell-based, ATP luminescence, mouse fibroblasts (AID 2010); type: functional;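 note: cells exposed to compound for about 90 hours before reading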
Streptococcus = assay: Group A Streptococcus viability loss, dose response, counter-screen for streptokinase expression inhibitor project, luminescence, BacTiterGlo (AID 1915); type: functional, organism-based;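 note: potency for reduction of bacterial viability or growth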
Cytochrome P450 1A2 = target: T2, Cytochrome P450 1A2 (Homo sapiens, UniProt P05177);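 note: PubChem cytochrome P450 panel assay, CYP1A2 panel member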
T2 sequence (P05177 whole entry): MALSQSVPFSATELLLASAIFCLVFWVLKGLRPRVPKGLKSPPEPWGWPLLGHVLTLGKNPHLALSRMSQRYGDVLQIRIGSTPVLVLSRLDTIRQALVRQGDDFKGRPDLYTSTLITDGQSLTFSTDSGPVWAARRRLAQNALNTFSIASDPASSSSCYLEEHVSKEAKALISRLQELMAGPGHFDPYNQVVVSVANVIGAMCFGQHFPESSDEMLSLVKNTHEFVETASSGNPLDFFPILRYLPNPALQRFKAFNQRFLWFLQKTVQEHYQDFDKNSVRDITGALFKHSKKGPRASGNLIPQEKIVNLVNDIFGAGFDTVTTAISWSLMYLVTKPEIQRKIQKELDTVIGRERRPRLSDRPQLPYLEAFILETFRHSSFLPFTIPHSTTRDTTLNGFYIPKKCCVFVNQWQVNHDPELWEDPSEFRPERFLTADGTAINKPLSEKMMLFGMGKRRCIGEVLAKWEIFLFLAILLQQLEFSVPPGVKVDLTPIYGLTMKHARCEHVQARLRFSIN

Cytochrome P450 2C19, sequence (P33261 whole entry): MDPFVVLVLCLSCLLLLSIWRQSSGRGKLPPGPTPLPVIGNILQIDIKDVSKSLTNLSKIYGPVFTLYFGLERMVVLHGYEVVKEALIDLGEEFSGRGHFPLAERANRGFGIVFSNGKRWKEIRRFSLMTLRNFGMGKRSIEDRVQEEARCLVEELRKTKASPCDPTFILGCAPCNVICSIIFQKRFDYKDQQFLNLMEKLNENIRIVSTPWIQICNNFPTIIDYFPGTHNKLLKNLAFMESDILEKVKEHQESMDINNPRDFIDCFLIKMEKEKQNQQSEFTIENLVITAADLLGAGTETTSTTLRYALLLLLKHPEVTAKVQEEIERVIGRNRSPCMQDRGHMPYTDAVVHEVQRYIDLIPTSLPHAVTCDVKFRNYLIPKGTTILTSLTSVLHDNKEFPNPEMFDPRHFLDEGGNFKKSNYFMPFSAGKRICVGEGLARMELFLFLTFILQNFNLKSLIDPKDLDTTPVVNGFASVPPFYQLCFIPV

## CC(=O)NCCNc1nc(-c2cccc(NS(C)(=O)=O)c2)nc2ccccc12
Cytochrome P450 2C19; read-out: AC50
  AC50: 39.8 µM (inconclusive)
Cytochrome P450 2D6
  AC50: 10 µM (inconclusive)

## Cc1ccc(C(=O)Cn2cccn2)cc1
[1]
  EC50: > 160 µM (inconclusive)
[2]
  EC50: > 38 µM (not active)

## N=c1c2ccccc2nc2n1CCCCCCCCCCC2
INS1
  AC50: 9.52 µM (active)

## O=c1ccc2[nH]cc(C3=CCNCC3)c2[nH]1
Cytochrome P450 2C9
  AC50: 7.94 µM (inconclusive)

## CCCNC(=O)Cn1cnc2sc(C(=O)Nc3ccc4c(c3)OCO4)c(C)c2c1=O
Cytochrome P450 2C19; read-out: AC50
  AC50: 0.00562 µM (inconclusive)
Cytochrome P450 2D6
  AC50: 5.01 µM (inconclusive)
Cytochrome P450 3A4
  AC50: 1.41 µM (inconclusive)

## C/C(=N\NC(=O)c1cccc(Br)c1)c1ccc(Br)cc1
Cytochrome P450 2C19; read-out: AC50
  AC50: 0.224 µM (inconclusive)
Cytochrome P450 3A4
  AC50: 28.2 µM (inconclusive)

## Cc1cccc(CSc2nc(N)c(C#N)c(-c3cccs3)c2C#N)c1
[3]
  EC50: 5.04 µM (active)
Streptokinase A
  EC50: 4.93 µM (active)
[4]
  EC50: 2.31 µM (active)
[5]
  EC50: > 60 µM (inconclusive)
Streptococcus
  EC50: > 150 µM (not active)

## CCc1ccc(OCC(=O)NC(=S)Nc2ccc(F)cc2)c(Br)c1
Cytochrome P450 1A2
  AC50: 3.16 µM (inconclusive)
Cytochrome P450 2C9
  AC50: 3.16 µM (inconclusive)

## CN1CCC(=C2c3ccccc3Sc3ccccc32)CC1 [PIMETHIXENE]
Cytochrome P450 2C19; read-out: AC50
  AC50: 15.8 µM (inconclusive)

## CCOC(=O)c1sc(NC(C)=O)nc1-c1ccccc1
Cytochrome P450 2C19; read-out: AC50
  AC50: 10 µM (inconclusive)

## Cc1ccc(NS(=O)(=O)c2ccc(C3CCCCC3)cc2)cc1
[3]
  EC50: 4.32 µM (active)
Streptokinase A
  EC50: 4.17 µM (active)
Streptococcus
  EC50: 7.04 µM (active)

## CC(C)c1ccc(COc2ccc(C(=O)N3CCOCC3)cc2)cc1
INS1
  AC50: 9.42 µM (active)

## O=P([O-])([O-])C(Cl)(Cl)P(=O)(O)O.[Na+].[Na+] [CLODRONATE DISODIUM]
Cytochrome P450 2C19
  AC50: inconclusive

## COc1ccc(-c2nc(-c3ccncc3)no2)cc1OC
[1]
  EC50: > 160 µM (inactive)
[2]
  EC50: 5.21 µM (active)

## COc1ccc(OCCNS(=O)(=O)c2ccc3oc4ccccc4c3c2)cc1
Cytochrome P450 2C9
  AC50: 2.51 µM (inconclusive)

## O=C(CNC(=O)c1ccc2c(c1)OCO2)N/N=C/c1cc(Br)ccc1O
[3]
  EC50: 10.1 µM (active)
Streptokinase A
  EC50: > 150 µM (not active)
Streptococcus
  EC50: 25.2 µM (inconclusive)
INS1
  AC50: 3.36 µM (active)

## COc1ccc(NC(=O)COC(=O)Cn2c(C)nc3ccccc32)cc1OC
Cytochrome P450 2C19; read-out: AC50
  AC50: 3.55 µM (inconclusive)

## Cc1ccc(-n2c(-c3ccccc3)cc(=O)nc2C)cc1
Cytochrome P450 2C9
  AC50: 7.08 µM (inconclusive)

## FC(F)(F)Oc1ccc(N=C(S)Nc2ccc(OC(F)(F)F)cc2)cc1
[3]
  EC50: 15.8 µM (active)
Streptokinase A
  EC50: > 150 µM (not active)
Streptococcus
  EC50: 22 µM (active)

## COc1ccc(C2N=C(Nc3ccc(C)cc3)Nc3nc(C)cc(=O)n32)cc1 (stereo unspecified)
[1]
  EC50: > 160 µM (inactive)
[2]
  EC50: > 38 µM (not active)

## Cc1c(C(=O)NCCC2=CCCCC2)cccc1[N+](=O)[O-]
Cytochrome P450 2D6
  AC50: 15.8 µM (inconclusive)
Cytochrome P450 1A2
  AC50: 15.8 µM (inconclusive)
Cytochrome P450 3A4
  AC50: 14.1 µM (inconclusive)

## COC(=O)[C@@]1(Cc2ccc(OC)cc2)[C@H]2c3cc(C(=O)N4CCCC4)n(Cc4nc5ccccc5[nH]4)c3C[C@H]2CN1C(=O)c1ccccc1
Cytochrome P450 2C19; read-out: AC50
  AC50: 20 µM (inconclusive)

## CN1c2ccccc2C(O)=C(C(=O)Nc2ccccc2)S1(=O)=O
Cytochrome P450 2C19
  AC50: inconclusive
Cytochrome P450 3A4
  AC50: 39.8 µM (inconclusive)

## Cc1cnc(CNc2ncncc2-c2ccccc2Cl)cn1
Cytochrome P450 2D6
  AC50: 25.1 µM (inconclusive)
Cytochrome P450 3A4
  AC50: 0.251 µM (inconclusive)

## CC1(C)Cc2c(cnn2-c2ccccc2)C(NC(=O)CCCN2CCCC2=O)C1 (stereo unspecified)
[3]
  EC50: > 150 µM (not active)
Streptokinase A
  EC50: > 150 µM (not active)
Streptococcus
  EC50: > 150 µM (not active)

## COc1ccc2[nH]cc(CCNc3ncnc4ccc(-c5c(C)noc5C)cc34)c2c1
Cytochrome P450 2C9
  AC50: 0.501 µM (inconclusive)

## CCOC(=O)CSc1n[nH]c(-c2cccnc2)n1
Cytochrome P450 2C19; read-out: AC50
  AC50: 11.2 µM (inconclusive)
Cytochrome P450 3A4
  AC50: 15.8 µM (inconclusive)

## COCCn1c(=O)c(-c2ccc(Cl)cc2)nc2cnc(OC)nc21
Cytochrome P450 2D6
  AC50: 25.1 µM (inconclusive)
Cytochrome P450 2C9
  AC50: 39.8 µM (inconclusive)

## N#CC(C#N)=Cc1cc(O)c(O)c(O)c1 [TYRPHOSTIN 25]
Cytochrome P450 2C9
  AC50: 15.8 µM (inconclusive)

## COc1ccc(NC(=O)N2CCCC3(CCN(C(=O)c4ccc(OC)cc4)CC3)C2)cc1
Cytochrome P450 2C9
  AC50: 39.8 µM (inconclusive)

## CCN(CC)S(=O)(=O)c1cccc(NC(=O)c2cc(-c3cccs3)nn2-c2ccccc2)c1
INS1
  AC50: 10.3 µM (active)

## Cn1ncc2c(Nc3ccc(Cl)c(Cl)c3)ncnc21
[3]
  EC50: 7.9 µM (active)
Streptokinase A
  EC50: > 150 µM (not active)
Streptococcus
  EC50: 16 µM (active)

## Cn1c(CCN2CCCCC2)nc2cc([N+](=O)[O-])ccc21
Cytochrome P450 2C19
  AC50: inconclusive
Cytochrome P450 2D6
  AC50: 14.1 µM (inconclusive)

## O=C(O)CSCC(=O)N(Cc1ccccc1)c1nc(-c2ccccc2)c(-c2ccccc2)s1
[3]
  EC50: 0.996 µM (active)
Streptokinase A
  EC50: 2.81 µM (active)
Streptococcus
  EC50: 8.03 µM (active)

## Cc1ccc(NC(=O)c2cccc(OCc3c(C)noc3C)c2)cc1S(=O)(=O)Nc1ccccc1Cl
Streptokinase A
  EC50: > 150 µM (not active)
Streptococcus
  EC50: 57.1 µM (active)

## CC(C)(C)c1ccc(OCC(=O)NNC(=O)Cc2cccs2)cc1
Cytochrome P450 2C19; read-out: AC50
  AC50: 20 µM (inconclusive)
Cytochrome P450 1A2
  AC50: 28.2 µM (inconclusive)

## C/C(=N\O)c1cc(Cl)cc(Cl)c1O
[1]
  EC50: > 160 µM (inactive)
[2]
  EC50: 4.41 µM (active)

## COc1ccc(NS(=O)(=O)c2cccc(NC(=O)CCC(=O)c3ccc(Cl)cc3)c2)cc1
[3]
  EC50: 11.2 µM (active)
Streptokinase A
  EC50: > 150 µM (not active)
Streptococcus
  EC50: 25.3 µM (active)

## COCc1nnc(NC(=O)CCN2C(=O)c3ccccc3C2=O)s1
Cytochrome P450 2D6
  AC50: 17.8 µM (inconclusive)
Cytochrome P450 2C9
  AC50: 31.6 µM (inconclusive)

## COc1cnc(-c2ccccn2)nc1Oc1c(C)cccc1C
[3]
  EC50: 6.39 µM (active)
Streptokinase A
  EC50: > 150 µM (not active)
Streptococcus
  EC50: > 150 µM (not active)

## CCN(CC)c1nc(N)c2c(N)nc3c(c2c1C#N)CC(c1ccccc1)O3 (stereo unspecified)
[1]
  EC50: > 160 µM (inactive)
[2]
  EC50: > 38 µM (not active)

## CN(Cc1ccco1)c1ncnc2ccc(-c3cccc(NS(C)(=O)=O)c3)cc12
Cytochrome P450 2C9
  AC50: 0.794 µM (inconclusive)

## Oc1c(Br)cc(Br)cc1Oc1ccc(Br)cc1Br
[1]
  EC50: > 150 µM (inactive)
[3]
  EC50: 1.33 µM (active)
Streptokinase A
  EC50: 0.753 µM (active)
[2]
  EC50: > 38 µM (not active)
Streptococcus
  EC50: 2.73 µM (active)

## Cc1ccc(-c2nnc(Nc3ccccc3)c3ccccc23)cc1S(=O)(=O)NCC1CCCO1 (stereo unspecified)
[1]
  EC50: 25 µM (active)
[2]
  EC50: 5.07 µM (active)

## O=C(Oc1c(Cl)cc(Cl)c2cccnc12)N1CCOCC1
[1]
  EC50: > 150 µM (inactive)
[2]
  EC50: > 38 µM (not active)

## CN1CCN(c2ncc3nc(-c4ccccc4)c(=O)n(CCC#N)c3n2)CC1
Cytochrome P450 2D6
  AC50: 25.1 µM (inconclusive)
Cytochrome P450 1A2
  AC50: 20 µM (inconclusive)

## COc1cccc(-c2ccc3ncnc(Nc4ccccc4)c3c2)c1
Cytochrome P450 2C9
  AC50: 0.631 µM (inconclusive)

## O=C(Nc1cccc(F)c1)N1CCCCCC1
[3]
  EC50: > 150 µM (not active)
Streptokinase A
  EC50: > 150 µM (not active)
Streptococcus
  EC50: > 150 µM (not active)

## CS(=O)(=O)N1CCC2(CCN(Cc3ccncc3)CC2)CC1
Cytochrome P450 2D6
  AC50: 25.1 µM (inconclusive)
Cytochrome P450 3A4
  AC50: 12.6 µM (inconclusive)
Cytochrome P450 2C9
  AC50: 31.6 µM (inconclusive)

## CO[C@@H](C)[C@](O)(C(=O)OCC1=CCN2CC[C@@H](O)[C@H]12)C(C)C
Cytochrome P450 2C19
  AC50: inconclusive
Cytochrome P450 2D6
  AC50: 3.98 µM (inconclusive)

## Cc1ccc(-c2csc(NNC(=O)c3ccccc3)n2)cc1
[3]
  EC50: 4.37 µM (active)
Streptokinase A
  EC50: > 150 µM (not active)
Streptococcus
  EC50: > 150 µM (not active)
